In patent US8912124B2, “Use of derivatives of (1-cyanocyclopropyl)phenylphosphinic acid, esters thereof and/or salts thereof for enhancing tolerance in plants to abiotic stress” (Bayer Cropscience AG, priority 2010, dated 2014):

Legend:
Type in all cases: in vivo
BRSNS=Brassica napus = experiment: Drought stress test on crop plants, spray application, efficacy (EF) on Brassica napus; conditions: percentage reduction in intensity of damage, mean of three results
Procedure: (§1) Seeds of monocotyledonous and dicotyledonous crop plants were placed in sandy loam in wood-fiber pots, covered with soil and cultivated in a greenhouse under good growth conditions. The test plants were treated at the early leaf stage (BBCH10-BBCH13). To ensure uniform water supply before commencement of stress, the potted plants were supplied with the maximum amount of water immediately beforehand by dam irrigation and, after application, transferred in plastic inserts in order to prevent subsequent, excessively rapid drying. The inventive compounds, formulated in the form of wettable powders (WP), wettable granules (WG), suspension concentrates (SC) or emulsion concentrates (EC), were sprayed onto the green parts of the plants as an aqueous suspension at an equivalent water application rate of 600 I/ha with addition of 0.2% wetting agent (agrotin). Substance application was followed immediately by stress treatment of the plants (cold or drought stress). For cold stress treatment, the plants are kept under the following controlled conditions: • “day”: 12 hours with illumination at 8° C. • “night”: 12 hours without illumination at 1° C.
(§2) Drought stress is induced by gradual drying out under the following conditions: • “day”: 14 hours with illumination at 26° C. • “night”: 10 hours without illumination at 18° C.
The duration of the respective stress phases was guided mainly by the state of the untreated, stressed control plants and thus varied from crop to crop. It was ended (by re-irrigating or transfer to a greenhouse with good growth conditions) as soon as irreversible damage was observed on the untreated, stressed control plants. In the case of dicotyledonous crops, for example oilseed rape and soya, the duration of the drought stress phase varied between 3 and 5 days, in the case of monocotyledonous crops, for example wheat, barley or corn, between 6 and 10 days. The duration of the cold stress phase varied between 12 and 14 days.
The end of the stress phase was followed by an approx. 5-7-day recovery phase, during which the plants were once again kept under good growth conditions in a greenhouse. In order to rule out any influence of the effects observed by any fungicidal action of the test compounds, it was additionally ensured that the tests proceed without fungal infection and without infection pressure.
After the recovery phase had ended, the intensities of damage were rated in visual comparison to untreated, unstressed controls of the same age (in the case of drought stress) or the same growth stage (in the case of cold stress). The intensity of damage was first assessed as a percentage (100%=plants have died, 0%=like control plants). These values were then used to calculate the efficacy of the test compounds (=percentage reduction in the intensity of damage as a result of substance application) by the following formula: […]
DVus: damage value of the untreated, stressed control
DVts: damage value of the plants treated with test compound
Tables A.1, A.2 and A.3 show the efficacies of selected inventive compounds of the formula (I) and of the formula (II) on different crop plants (BRSNS=Brassica napus (A.1;) TRZAS=Triticum aestivum (A.2); ZEAMX=Zea mays (A.3) under drought stress.
The values stated each represent mean values from three results of the same test.

TRZAS=Triticum aestivum = experiment: Drought stress test on crop plants, spray application, efficacy (EF) on Triticum aestivum; conditions: dosage 25 g/ha, percentage reduction in intensity of damage, mean of three results
Procedure: Seeds of monocotyledonous and dicotyledonous crop plants were placed in sandy loam in wood-fiber pots, covered with soil and cultivated in a greenhouse under good growth conditions. The test plants were treated at the early leaf stage (BBCH10-BBCH13). To ensure uniform water supply before commencement of stress, the potted plants were supplied with the maximum amount of water immediately beforehand by dam irrigation and, after application, transferred in plastic inserts in order to prevent subsequent, excessively rapid drying. The inventive compounds, formulated in the form of wettable powders (WP), wettable granules (WG), suspension concentrates (SC) or emulsion concentrates (EC), were sprayed onto the green parts of the plants as an aqueous suspension at an equivalent water application rate of 600 I/ha with addition of 0.2% wetting agent (agrotin). Substance application was followed immediately by stress treatment of the plants (cold or drought stress). […]
(§3) After the recovery phase had ended, the intensities of damage were rated in visual comparison to untreated, unstressed controls of the same age (in the case of drought stress) or the same growth stage (in the case of cold stress). The intensity of damage was first assessed as a percentage (100%=plants have died, 0%=like control plants). […]

ZEAMX=Zea mays = experiment: Drought stress test on crop plants, spray application, efficacy (EF) on Zea mays; conditions: percentage reduction in intensity of damage, mean of three results
Procedure: as §1, §2
The duration of the respective stress phases was guided mainly by the state of the untreated, stressed control plants and thus varied from crop to crop. It was ended (by re-irrigating or transfer to a greenhouse with good growth conditions) as soon as irreversible damage was observed on the untreated, stressed control plants. […]
as §3

With `CCOP(=O)(c1ccccc1)C1(C#N)CC1` (stereo not shown) [Compound 2-2, ethyl (1-cyanocyclopropyl)phenylphosphinate] the “EF (BRSNS)” value (BRSNS=Brassica napus; dosage 25 g/ha) was >5% and the “EF (TRZAS)” value (TRZAS=Triticum aestivum) was >5%.

For `CCOP(=O)(c1cccc(C)c1)C1(C#N)CC1` (stereo not shown) [Compound 2-16], the “EF (BRSNS)” value (BRSNS=Brassica napus; dosage 250 g/ha) was >5%.

`CCOP(=O)(c1ccc(C)cc1)C1(C#N)CC1` (stereo not shown) [Compound 2-17] was tested, and the “EF (BRSNS)” value (BRSNS=Brassica napus; dosage 250 g/ha) was >5%.

In the case of `CCOP(=O)(c1ccccc1OC)C1(C#N)CC1` (stereo not shown) [Compound 2-18], the “EF (BRSNS)” value (BRSNS=Brassica napus; dosage 25 g/ha) is reported as >5%.

For `CCOP(=O)(c1cccc(OC)c1)C1(C#N)CC1` (stereo not shown) [Compound 2-19], the “EF (BRSNS)” value (BRSNS=Brassica napus; dosage 25 g/ha) was >5%.

`CCOP(=O)(c1cccc(C(=O)O)c1)C1(C#N)CC1` (stereo not shown) [Compound 2-34] was tested, and the “EF (BRSNS)” value (BRSNS=Brassica napus; dosage 25 g/ha) was >5%.

`CCOC(=O)c1cccc(P(=O)(OCC)C2(C#N)CC2)c1` (stereo not shown) [Compound 2-37] was tested, and the “EF (BRSNS)” value (BRSNS=Brassica napus; dosage 25 g/ha) was >5%.

With `CCOP(=O)(c1cc(Cl)cc(Cl)c1)C1(C#N)CC1` (stereo not shown) [Compound 2-111] the “EF (BRSNS)” value (BRSNS=Brassica napus; dosage 25 g/ha) was >5%.

For `CCCOP(=O)(c1ccccc1)C1(C#N)CC1` (stereo not shown) [Compound 2-130], the “EF (BRSNS)” value (BRSNS=Brassica napus; dosage 25 g/ha) was >5% and the “EF (ZEAMX)” value (ZEAMX=Zea mays; dosage 25 g/ha) was >5%.

For `CC(C)COP(=O)(c1ccccc1)C1(C#N)CC1` (stereo not shown) [Compound 2-135], the “EF (BRSNS)” value (BRSNS=Brassica napus; dosage 25 g/ha) was >5% and the “EF (TRZAS)” value (TRZAS=Triticum aestivum) was >5%.

For `N#CC1(P(=O)(OC2CCCCC2)c2ccccc2)CC1` (stereo not shown) [Compound 2-142], the “EF (BRSNS)” value (BRSNS=Brassica napus; dosage 25 g/ha) was >5%.

For `N#CC1(P(=O)(OCc2ccccc2)c2ccccc2)CC1` (stereo not shown) [Compound 2-155], the “EF (BRSNS)” value (BRSNS=Brassica napus; dosage 25 g/ha) was >5% and the “EF (ZEAMX)” value (ZEAMX=Zea mays; dosage 25 g/ha) was >5%.

In the case of `CCCOP(=O)(c1ccccc1F)C1(C#N)CC1` (stereo not shown) [Compound 2-158], the “EF (BRSNS)” value (BRSNS=Brassica napus; dosage 25 g/ha) is reported as >5% and the “EF (ZEAMX)” value (ZEAMX=Zea mays; dosage 250 g/ha) is reported as >5%.

`CCCOP(=O)(c1ccccc1Cl)C1(C#N)CC1` (stereo not shown) [Compound 2-159] was tested, and the “EF (BRSNS)” value (BRSNS=Brassica napus; dosage 25 g/ha) was >5%.
